The record followed here is paper PMC12040169 (PLOS Biology, 2025).

The data set in a line: in vitro. The following applies: human, hela cells, % viability.

The term viability denotes a read-out of living cells in per cent, often relative to untreated cells. As to `S=c1[nH]nc(Nc2ccccc2)n1-c1ccccc1` [CBK026332], the viability at 28.5 h, 10 µM is 123%. For `CCc1nc(C2CCCN2c2ncc(C#N)cc2Cl)no1` (centres unmarked) [CBK305183], the viability at 28.5 h, 10 µM stood at 91.1%. For the compound `Cc1cc(C(=O)N2CC[C@H]3NC(=O)c4ccccc4OCCCCC[C@H]3C2)no1` [CBK292005], the viability at 28.5 h, 10 µM worked out at 91.8%. In the case of `Cc1nn(S(=O)(=O)c2cccc3nsnc23)c(C)c1Cl` [CBK270323], the viability at 28.5 h, 10 µM came to 92.6%. On the same count and under the same terms, in the case of `Nc1nnc(C(=O)c2cc(Br)ccc2N)s1` [CBK009811] it was 102%; in that of `C#CCNC(=O)c1nn(Cc2ccc(S(=O)(=O)N(C)OC)cc2)c2ccccc12` [CBK047985], 96.2%. Same read-out and setting: to `Oc1ccc(CN2CCN(Cc3ccc(Br)s3)CC2)c2cccnc12` [CBK295645] belongs 89.5%.

On to `NCC(O)CNC(=O)c1cc(-c2ccc(Cl)cc2)[nH]n1` (centres unmarked) [CBK160977], for which the viability at 28.5 h, 10 µM was determined as 87%. For the compound `CCN(CCO)c1ccc(Nc2cc(-c3ccsc3)ncn2)cc1` [CBK091000], the viability at 28.5 h, 10 µM worked out at 89.5%. `CCN(CC)c1c(C)nc2ccc(C(=O)NC3CCN(C)CC3)cn12` [CBK145965]: the viability at 28.5 h, 10 µM came to 98.7%.

Turning to `O=C(Nc1cccc(-c2ccc3c(c2)COC2(CCNCC2)O3)c1)c1cnccn1` [CBK093670], the viability at 28.5 h, 10 µM (bulk resorufin, single well) was determined as 90.5%. Consider `N#Cc1ccc(NC(=O)NCCc2cccs2)cc1` [CBK043736], for which the viability at 28.5 h, 10 µM was determined as 115%. Still for that read-out and setting: in the case of `CC1CN(C(=O)c2ncoc2-c2ccc(F)cc2)CC(C)O1` (centres unmarked) [CBK282379] it was 90%; in that of `Cc1ccc(Cn2nc(NC(=O)c3cc(C)on3)c3ccccc32)cc1` [CBK048215], 90.8%. As to `Fc1cnc(Nc2ccccc2)nc1N1CCOCC1` [CBK287279], the viability at 28.5 h, 10 µM worked out at 76.5%.

On to `CC1CC1C(=O)N1CCC(C#N)(c2ccccc2)CC1` (centres unmarked) [CBK091402], for which the viability at 28.5 h, 10 µM (bulk resorufin, single well) came out at 99%. In the case of `Cc1cc(CN(C)Cc2cnn(Cc3ccccc3)c2C)n[nH]1` [CBK283017], the viability at 28.5 h, 10 µM amounted to 94.6%. As for `C=C[C@H]1C[N@@]2CC[C@H]1C[C@@H]2CNS(=O)(=O)c1cccc2cccnc12` [CBK288751], the viability at 28.5 h, 10 µM came to 98.2%. On the same count and under the same terms, to `O=C(NCCc1cccnc1)C1CCCN(c2nc3c(-c4ccccc4)csc3c(=O)[nH]2)C1` (centres unmarked) [CBK215495] belongs 88.7%; to `CC1CCc2c(sc(NC(=O)CCC(=O)O)c2C(=O)N2CCOCC2)C1` (centres unmarked) [CBK307550], 94.1%; to `CS(=O)(=O)N(CC(=O)O)c1ccc2c(c1)OCCO2` [CBK287151], 96.6%. Consider `c1ccc2oc(CN3Cc4nc[nH]c4C[C@H]3c3nc(-c4cnccn4)no3)cc2c1` [CBK288954], for which the viability at 28.5 h, 10 µM amounted to 113%. `CCc1cc(C(=O)NC(c2ccc(F)cc2)c2nccn2C)n(C)n1` (centres unmarked) [CBK281434]: the viability at 28.5 h, 10 µM was found to be 108%. On to `CN(C(=O)Cn1c(=O)n(C)c2ncccc21)C1CCCCC1` [CBK283791], for which the viability at 28.5 h, 10 µM is 81.5%. Same read-out and setting: in the case of `CCOC(=O)CN(Cc1ccccc1)Cc1cccc(OC)c1` [CBK126459] it was 96.4%. Still for that read-out and setting: to `Cc1noc(C)c1NC(=O)CN1CCOCC1` [CBK200381] belongs 103%; to `CCOc1cc(OCC)cc(C(=O)N2CCC3(CC2)CC(=O)c2ccc(OCC)c(C)c2O3)c1` [CBK168015], 112%. With `Cc1nonc1CNC(=O)C1CC2C=CC1C21CC1` (centres unmarked) [CBK281678], the viability at 28.5 h, 10 µM came to 91.4%. `CCOC(=O)C1(c2ccccc2)CCN(C(=O)c2ccc3occc3c2)CC1` [CBK132187]: the viability at 28.5 h, 10 µM (bulk resorufin, single well) stood at 92.2%. `CN(C)Cc1cc(C(C)(C)C)cc(CN(C)C)c1O` [CBK266994]: the viability at 28.5 h, 10 µM is 98.4%. For the compound `CN(CCC1CCN(c2ccncc2)CC1)C(=O)c1cc2sccc2[nH]1` [CBK305468], the viability at 28.5 h, 10 µM worked out at 93.3%. The same measure, in the same setting: in the case of `CCOC(=O)CN1CCN(S(=O)(=O)c2ccc(F)c(Cl)c2)CC1` [CBK043782] it was 89.3%; in that of `Cc1ccc(S(=O)(=O)NCCOc2nc(N(C)C)nc(N3CCOCC3)n2)cc1` [CBK266705], 97%. For the compound `Cc1csc(C(Cc2cccs2)NC(=O)C2CCOCC2)n1` (centres unmarked) [CBK285006], the viability at 28.5 h, 10 µM worked out at 89.2%.

Regarding `CC(C)=C1C2CCC1C(C(=O)N1CCC3(CC1)OCCO3)C2C(=O)O` (centres unmarked) [CBK286937], the viability at 28.5 h, 10 µM (bulk resorufin, single well) was 92.7%. As for `CCOC(=O)C(NC(=O)N(C1=NCC(C)S1)C1CCCCC1)(OC)C(F)(F)F` (centres unmarked) [CBK021431], the viability at 28.5 h, 10 µM is 96.8%. On to `Cn1c(NC(=O)COc2ccccc2)nc2ccccc21` [CBK269783], for which the viability at 28.5 h, 10 µM is 98.7%. Regarding `O=C(CCN1CCCC1Cn1cncn1)NCCc1ccccc1` (centres unmarked) [CBK305677], the viability at 28.5 h, 10 µM is 92.9%. Regarding `CCNC(=O)N1C[C@@H]2OCC(=O)N(Cc3ccccc3)[C@@H]2C1` [CBK289679], the viability at 28.5 h, 10 µM came out at 104%. For `CCc1nc2ccccc2n1CC(=O)O` [CBK111477], the viability at 28.5 h, 10 µM stood at 101%.

`O=C(O)CC(CN1C(=O)c2ccccc2C1=O)C(=O)c1ccccc1` (centres unmarked) [CBK287221]: the viability at 28.5 h, 10 µM is 92.4%. Still for that read-out and setting: in the case of `CC(C)(C)S(=O)(=O)c1ccc2nc3c(n2c1)CCCC3` [CBK006753] it was 94.9%.

Take `CC(C)NC(=O)[C@@H](C)C1CC[C@@]2(C)CC[C@H](NC(=O)c3ccncc3)[C@@H](C)[C@@H]2[C@H]1O` (some centres unmarked) [CBK289449]: the viability at 28.5 h, 10 µM was 89.1%. Take `Cc1ccc(CCn2nc(C)cc2C)cn1` [CBK021375]: the viability at 28.5 h, 10 µM stood at 104%. For the compound `COc1cc(/C=N/NC(=O)CCn2c3ccccc3c3ccccc32)ccc1O` [CBK262332], the viability at 28.5 h, 10 µM was determined as 73%. Regarding `COc1nc(OC)nc(Sc2ccc(N)cc2)n1` [CBK019319], the viability at 28.5 h, 10 µM was determined as 88.3%.

Consider `CCn1c(CN2CCOCC2)nnc1SCC(=O)Nc1cccc(Br)c1` [CBK269740], for which the viability at 28.5 h, 10 µM worked out at 85.6%. The same measure, in the same setting: in the case of `CCCNc1nc(O)cc(C(F)(F)F)n1` [CBK000214] it was 95.8%. As for `Cc1cccn2c(CN(C)C(C)C(N)=O)c(C(=O)N3CCOCC3)nc12` (centres unmarked) [CBK306592], the viability at 28.5 h, 10 µM was 105%. Still for that read-out and setting: in the case of `O=C(Nc1ccccc1OC1CCNCC1)c1ccccc1` [CBK050238T] it was 115%. For `Cc1nn(C)c(C)c1NC(=O)c1ncoc1-c1ccc(F)cc1` [CBK282359], the viability at 28.5 h, 10 µM was determined as 87.7%. Regarding `COc1ncc(-c2nccnc2OCCOc2ccccc2)c(OC)n1` [CBK106752], the viability at 28.5 h, 10 µM was found to be 91.1%. In the case of `CCOC(=O)N1CCC(NS(=O)(=O)c2cn(C)c(=O)n(C)c2=O)CC1` [CBK305699], the viability at 28.5 h, 10 µM turned out to be 89.1%.

As for `O=C(Nc1ccccc1Cl)C1CCCN1S(=O)(=O)c1ccc(F)cc1` (centres unmarked) [CBK110161], the viability at 28.5 h, 10 µM amounted to 89.1%. Regarding `O=C1CC(c2cc(F)ccc2F)c2c(-c3ccc(Cl)cc3)n[nH]c2N1` (centres unmarked) [CBK288000], the viability at 28.5 h, 10 µM came out at 110%. As for `O=S1(=O)Cc2ccccc2C(Oc2cncc(N3CCNCC3)n2)C1` (centres unmarked) [CBK172344T], the viability at 28.5 h, 10 µM is 91.2%. On to `CC(C)(C)OC(=O)N1CCC(CNCc2c[nH]c(-c3ccccc3)n2)CC1` [CBK056718], for which the viability at 28.5 h, 10 µM is 94.3%.

Consider `O=C(O)CCC(=O)Nc1ccccc1C(=O)Nc1ccccc1` [CBK058571], for which the viability at 28.5 h, 10 µM amounted to 92.4%. In the case of `O=C(NCCO)Nc1ccc2nccnc2c1` [CBK027577], the viability at 28.5 h, 10 µM came out at 71.5%.
